The text below walks through data of PubChem BioAssay (NCI).

Test systems include HOP-62 NSCLC; MALME-3M melanoma; T-47D breast; HL-60(TB) leukemia; RXF 393 renal; MCF7 breast; SK-OV-3 ovarian; DU-145 prostate; SR leukemia; MOLT-4 leukemia.
Common to all, as to assay: growth of human tumour cells (NCI), 48 h

“And” between values parts separate entries of the source, which are not always exact repeats. Identical values can stand only once.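 Following 48 hours of exposure in 96-well plates, responses at five concentrations were used to interpolate endpoints linearly. Abbreviation: GI50, concentration required for 50% inhibition of growth. TGI: concentration producing complete growth inhibition.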

Regarding `CC/C(=C(\c1ccc(O)cc1)c1ccc(OCCNC)cc1)c1ccccc1`, the GI50 is 1.88 µM and 1.83 µM and 1.71 µM with HOP-62 NSCLC; 1.76 µM and 1.66 µM and 1.82 µM in the assay with MALME-3M melanoma; 1.3 µM and 1.21 µM and 1.25 µM in the assay with T-47D breast; 1.88 µM and 1.89 µM and 2.39 µM in the assay with HL-60(TB) leukemia; 1.5 µM and 1.63 µM and 1.37 µM in the assay on RXF 393 renal; 0.788 µM and 0.427 µM in the assay with MCF7 breast. The GI50 in the assay with SK-OV-3 ovarian was 5.14 µM and 3.69 µM and 2.08 µM; with DU-145 prostate it was 2.15 µM and 1.71 µM and 2.33 µM; with SR leukemia, 2.42 µM and 1.63 µM and 2.22 µM; with MOLT-4 leukemia it was 3.22 µM and 1.94 µM and 2.98 µM. The TGI with HOP-62 NSCLC was 3.35 µM and 3.32 µM and 3.42 µM; with MALME-3M melanoma it was 3.49 µM and 3.29 µM and 3.5 µM; in the assay on T-47D breast, 3.83 µM and 3.43 µM and 4.01 µM; in the assay on HL-60(TB) leukemia, 4.43 µM and 4.07 µM and 5.44 µM; in the assay with RXF 393 renal it was 3.68 µM and 3.3 µM and 2.8 µM; in the assay with MCF7 breast, 2.84 µM and 2.83 µM and 2.81 µM. Besides, the TGI in the assay with SK-OV-3 ovarian was 13.6 µM and 9.3 µM and 5.09 µM; with DU-145 prostate, 4.36 µM and 3.46 µM and 5.25 µM; with SR leukemia, 5.85 µM and 4.11 µM and 5.54 µM; with MOLT-4 leukemia, 8.37 µM and 5.92 µM and 8.57 µM.

`COC(=O)c1c2c(c(C)[n+]([O-])c1C)C(=O)C(NCc1ccc(F)c(Cl)c1)=CC2=O`: the GI50 was 2.96 µM in the assay with HOP-62 NSCLC; 0.214 µM in the assay with MALME-3M melanoma; 1.84 µM in the assay with T-47D breast; 1.39 µM in the assay with HL-60(TB) leukemia; 1.73 µM with RXF 393 renal; 1.32 µM in the assay with MCF7 breast. The GI50 in the assay with SK-OV-3 ovarian is 3.57 µM; in the assay with DU-145 prostate, 2.44 µM; in the assay on SR leukemia it was 2.5 µM; with MOLT-4 leukemia, 2.42 µM. Besides, the TGI was found to be 23.1 µM in the assay on HOP-62 NSCLC; 0.658 µM with MALME-3M melanoma; 5.09 µM in the assay with T-47D breast; 5.68 µM with HL-60(TB) leukemia; 4.05 µM in the assay on RXF 393 renal; 3.23 µM with MCF7 breast. In addition, the TGI was 13.6 µM in the assay with SK-OV-3 ovarian, 7.89 µM with DU-145 prostate, above 100 µM with SR leukemia and 7.2 µM with MOLT-4 leukemia.

`N#CC1=C(N)Oc2c(sc3c(F)cccc23)C1c1ccc([N+](=O)[O-])cc1` (stereo not given): the GI50 was 0.228 µM in the assay on HOP-62 NSCLC; 0.36 µM in the assay with MALME-3M melanoma; 0.254 µM with T-47D breast; 0.212 µM in the assay on HL-60(TB) leukemia; 0.191 µM in the assay on RXF 393 renal; 0.0367 µM in the assay on MCF7 breast. The GI50 in the assay with SK-OV-3 ovarian was 0.308 µM; with DU-145 prostate it was 0.34 µM; with SR leukemia, 0.0478 µM; in the assay on MOLT-4 leukemia, 0.132 µM. For the same compound, the TGI came to 1.79 µM with HOP-62 NSCLC; 2.17 µM in the assay on MALME-3M melanoma; 2.86 µM with T-47D breast; 0.806 µM in the assay on HL-60(TB) leukemia; 0.753 µM in the assay with RXF 393 renal; 1.54 µM in the assay on MCF7 breast. Also, the TGI in the assay with SK-OV-3 ovarian turned out to be 2.37 µM; in the assay on DU-145 prostate, 1.38 µM; with SR leukemia, 7.42 µM; in the assay on MOLT-4 leukemia, 1.46 µM.

For the compound `O=C1C(Nc2ccccn2)=C(I)C(=O)c2ncccc21`, the GI50 in the assay with HOP-62 NSCLC was 1.12 µM; in the assay on MALME-3M melanoma it was 1.27 µM; with T-47D breast, 1.36 µM; in the assay on HL-60(TB) leukemia, 1.63 µM; in the assay with RXF 393 renal, 1.25 µM; in the assay with MCF7 breast, 0.396 µM. Also, the GI50 in the assay with SK-OV-3 ovarian was 1.33 µM; in the assay on DU-145 prostate it was 0.367 µM; in the assay on SR leukemia it was 0.274 µM; with MOLT-4 leukemia, 0.702 µM. The TGI worked out at 2.43 µM in the assay on HOP-62 NSCLC; 2.54 µM with MALME-3M melanoma; 3.82 µM with T-47D breast; 3.77 µM with HL-60(TB) leukemia; 2.75 µM in the assay with RXF 393 renal; 2.07 µM in the assay with MCF7 breast. Also, the TGI was determined as 2.64 µM with SK-OV-3 ovarian, 1.42 µM in the assay with DU-145 prostate, 10 µM with SR leukemia and 4.66 µM with MOLT-4 leukemia.

Take `Cc1oc2c(c1C(=O)c1ccccc1)C(=O)c1ccccc1C2=O`: the TGI worked out at 22.4 µM in the assay on HOP-62 NSCLC; 4.53 µM in the assay on MALME-3M melanoma; 7.04 µM with T-47D breast; 17.1 µM with HL-60(TB) leukemia; 8.2 µM in the assay with RXF 393 renal; 10.6 µM with MCF7 breast. Besides, the TGI was 20.7 µM in the assay with SK-OV-3 ovarian, 24.6 µM in the assay with DU-145 prostate, above 36.6 µM in the assay with SR leukemia and 6.38 µM in the assay with MOLT-4 leukemia.

Consider `O=[N+]([O-])c1ccc2nc(N/N=C/c3ccc(O)cc3)sc2c1`, for which the GI50 in the assay with HOP-62 NSCLC was 8.82 µM; in the assay with MALME-3M melanoma, 19.7 µM; in the assay with T-47D breast, 3.01 µM; with HL-60(TB) leukemia, 3.6 µM; in the assay on RXF 393 renal, 10.9 µM; in the assay with MCF7 breast, 3.17 µM. For the same compound, the GI50 is 5.37 µM with SK-OV-3 ovarian, 3.96 µM with DU-145 prostate, 3.07 µM in the assay on SR leukemia and 2.96 µM in the assay on MOLT-4 leukemia. Further, the TGI with HOP-62 NSCLC was 30.7 µM; in the assay on MALME-3M melanoma, above 100 µM; in the assay with T-47D breast, 13.2 µM; in the assay with HL-60(TB) leukemia, 10.6 µM; in the assay with RXF 393 renal it was 66.9 µM; in the assay on MCF7 breast it was 70.5 µM. Further, the TGI with SK-OV-3 ovarian was 48.9 µM; in the assay on DU-145 prostate, 38.1 µM; in the assay on SR leukemia, 20.7 µM; in the assay on MOLT-4 leukemia, above 100 µM.

`O=C(Nc1ccc(-n2cc(-c3ccncc3)c(-c3ccc(Cl)c(O)c3)n2)cc1)c1cc(Cl)cc(Cl)c1`: the GI50 is 2.49 µM in the assay on HOP-62 NSCLC; 2.56 µM with MALME-3M melanoma; above 100 µM with T-47D breast; 4.41 µM in the assay on HL-60(TB) leukemia; 0.291 µM in the assay with RXF 393 renal; 6.21 µM in the assay on MCF7 breast. Moreover, the GI50 with SK-OV-3 ovarian is above 21.2 µM; in the assay on DU-145 prostate, above 32.8 µM; in the assay with SR leukemia, 3.33 µM; in the assay with MOLT-4 leukemia, 5.71 µM. Besides, the TGI was 18.8 µM in the assay with HOP-62 NSCLC; 8.81 µM in the assay on MALME-3M melanoma; above 100 µM with T-47D breast; above 31.6 µM with HL-60(TB) leukemia; 0.879 µM in the assay on RXF 393 renal; above 100 µM with MCF7 breast. Moreover, the TGI with SK-OV-3 ovarian, in the assay with DU-145 prostate, in the assay on SR leukemia and with MOLT-4 leukemia was above 100 µM in each case.

With `CCOC(=O)c1c(C)c2c(n1C)CSc1cc(S(=O)(=O)c3ccccc3)c(=O)[nH]c1-2`, the GI50 with HOP-62 NSCLC is 31.5 µM; in the assay with MALME-3M melanoma it was 35.1 µM; in the assay with T-47D breast, 10.5 µM; in the assay on HL-60(TB) leukemia, 25.2 µM; in the assay on RXF 393 renal, 44.4 µM; in the assay with MCF7 breast it was 19.3 µM. The GI50 in the assay with SK-OV-3 ovarian is 28.9 µM; in the assay with DU-145 prostate it was 23.1 µM; in the assay on SR leukemia, 29.3 µM; with MOLT-4 leukemia, 11.2 µM. Moreover, the TGI in the assay on HOP-62 NSCLC was 89.9 µM; in the assay with MALME-3M melanoma, above 100 µM; in the assay with T-47D breast it was 74.7 µM; with HL-60(TB) leukemia, above 100 µM; in the assay with RXF 393 renal it was above 100 µM; in the assay on MCF7 breast, above 100 µM. Further, the TGI in the assay on SK-OV-3 ovarian is above 100 µM; with DU-145 prostate, above 100 µM; with SR leukemia it was above 100 µM; with MOLT-4 leukemia it was 98.6 µM.
